Reference: ChEMBL document CHEMBL3507680, “University of Dundee, Gates Library screen for HepG2 cell viability”

Assay: Human HepG2 cell viability assay in 384 well format
Assay type: toxicity, cell-based
Set-up: dose 125 nL, time 70.5 hour; concentration not given beside the values
Conditions: HepG2 cells, read-out: Inhibition

Compound	cytotoxicity at 70.5 h [%]
CC[C@@H]1N(Cc2nccs2)CCC[C@]12CCC(=O)N2CCOC	-2.16
Cc1nc(C(C)C)sc1C(=O)NCCn1ccnc1	-7.02
CCN(Cc1cnn(C)c1)C[C@H]1CC[C@@H](Cc2cccc(C#N)c2)O1	-5.55
CN1CCN(c2ncccn2)CC12CCC(=O)N(CC1CC1)CC2 (stereo unspecified)	9.35
CC(C)(C)SCCCC(=O)N1CCC(Nc2cccnn2)CC1	-6.39
Cc1nnc2n1CCN(C(C(=O)NC1CC1)c1ccccc1)C2 (stereo unspecified)	-10.2
COc1ncc(C(=O)N2CCCC3(C=Cc4ccccc4O3)CC2)cn1 (stereo unspecified)	13.5
COC(=O)c1ccc(N2CCN(C(=O)CC(F)(F)F)C(C)C2)cc1 (stereo unspecified)	-9.89
COc1ccc(C2CCCN2c2cnc3ccccc3n2)c(OC)c1 (stereo unspecified)	-4.21
CCc1c(C)sc2c1c(N)nc(=O)n2CCN1CCOCC1	9.55
CS(=O)(=O)N1CCC(Cc2cnc(Br)cn2)CC1	-5.81
CN1CCC(NC(=O)C2CN(c3cncnc3)CCO2)CC1 (stereo unspecified)	-7.93
NC(=O)CNC(c1ccccc1)c1ccccc1	17.2
O=C(C1CCCC1)N1CCCC(c2nc(O)cc(-c3ccncc3)n2)C1 (stereo unspecified)	5.93
CCN1CCC(NC(=O)CNC(C)Cn2cccn2)CC1 (stereo unspecified)	11.4
Cc1ccc(N2CCCC(N(C)c3nn4cc(C)nc4s3)C2)nn1 (stereo unspecified)	-3.89
CCc1cc(C(F)(F)F)n2nc(C3CCCN3C3CCSCC3)cc2n1 (stereo unspecified)	-2.16
CCNc1cc2c(nn1)CCN(C(=O)Cc1ccc(C)s1)C2	0.997
CCN(C(C)=O)c1nc(CN2CCN(c3nccs3)CC2)cs1	23.5
O=C(NC1CCCCC1)NC1CCCc2c1cnn2CCO (stereo unspecified)	-5.64
CC(C)C(=O)N1CCC2(CN(CC3CCCC3)C2)C1	-5.09
N[C@@H](Cc1c[nH]cn1)C(=O)N1CCC(Oc2ccc(F)cc2)CC1	-4.52
Cc1ccnc(C2(C)CCCN2S(=O)(=O)c2ccccc2)n1 (stereo unspecified)	16.3
CCc1nccn1CC(=O)N1CCN(C2CCc3ccccc3C2)CC1 (stereo unspecified)	-13.3

Compound	cytotoxicity at 70.5 h [%]
COCCn1ccc(NCc2scnc2C)n1	-8.55
c1ccc2c(c1)SCCC2NCc1ccc(N2CCOCC2)cc1 (stereo unspecified)	-3.16
Cn1cccc1C(=O)N1CCCCC1c1ccn2ccnc2n1 (stereo unspecified)	-1.33
Cc1noc(C)c1CN(C)c1nc(C2CCCC2)nc2c1cnn2C	9.62
CCC(O)CN1CCN(C(=O)Cc2c(C)nc(C)[nH]c2=O)CC1 (stereo unspecified)	3.13
Cc1ccnc2c1NC(=O)CN2C(=O)CCC(F)(F)F	-6.32
COc1coc(C(=O)Nc2ccncc2)cc1=O	-12.7
CCc1ccc(CN2CCCC(CO)(CCOC)C2)cc1 (stereo unspecified)	-8.83
Cc1ccsc1CNC(=O)NC(C)c1ccc2c(c1)CCC(=O)N2 (stereo unspecified)	-13.4
Cn1cc(NC(=O)N2CCC2c2ccccc2)ccc1=O (stereo unspecified)	-4.87
CN(C)c1ncc2c(n1)CN(C1CC(C)(C)NC(C)(C)C1)C2=O	-6.77
COCCCC1(CO)CCCN(CCOC)C1 (stereo unspecified)	-4.83
CCc1nnc(Nc2cccc(C3CCN(C(=O)CO)CC3)n2)s1	-4.24
O=S(=O)(NCC1(O)CCOc2ccccc21)c1ccccc1Br (stereo unspecified)	-0.163
O=C(NCc1cccc(F)c1)Nc1ccn(CCN2CCOCC2)n1	-4.92
CC(C)c1nc2n(n1)CC(NCc1nnc(C3CC3)o1)CC2 (stereo unspecified)	0.876
Cc1ccccc1CN1CCN(C(=O)CCn2ccccc2=O)CC1	-12.1
CCNc1ncc(C(=O)NC2CCc3ccccc3C2)cn1 (stereo unspecified)	54.4
Cc1cccnc1CN1CCN(C(=O)c2ccn(C(C)(C)C)c2)CC1	40.4
Cc1nc[nH]c1CN1CCN(C2CCOCC2)CC(C(N)=O)C1 (stereo unspecified)	-9.69
CC(=O)NCCc1ccc(S(=O)(=O)N(CC(C)C)C(C)C)s1	33
Cc1cccc(CN(Cc2ccccn2)S(=O)(=O)N(C)C(C)C)c1	-14
Cc1cc2nc(SCC(=O)N3CCCCC3)n(C)c(=O)c2[nH]1	19.2
CNC(=O)C1CCCCN1C(=O)c1n[nH]c(=O)c2ccccc12 (stereo unspecified)	-6.33

Compound	cytotoxicity at 70.5 h [%]
CC(C)n1cc(C(=O)NCCCn2ccnc2)c2n[nH]c(=O)c-2c1	-6.63
O=C(CCc1cscn1)N1CCC(C(=O)O)(c2ccccc2)CC1	4.76
CC(C)NC(=O)C1CN(C(=O)N(C)C)CC12CCOCC2 (stereo unspecified)	-3.34
Cc1cnn(CC2CCCN2Cc2noc(C3CC3)n2)c1 (stereo unspecified)	0.359
Cc1cnccc1N1CCN(C[C@]2(O)CCCN3CCCC[C@@H]32)CC1	4.29
O=C(NC1CCS(=O)(=O)C1)c1ccc(-c2ccc(F)cc2)s1 (stereo unspecified)	-0.198
CCCNC(=O)NC(=O)CNC(C)(C)c1ccc2c(c1)OCCO2	-2.49
O=c1c2sccc2nc2n1CCN(Cc1ccccc1C(F)(F)F)CC2	-10.4
CC(NC(=O)CSCC#N)c1ccccc1 (stereo unspecified)	6.84
O=C(c1cc(Cn2ccc3ccccc32)[nH]n1)N1CCC[C@H]1CO	-0.0597
COc1c(C)cnc(CN2CCCCC2Cn2nc(C)nc2C)c1C (stereo unspecified)	16.8
Cc1cc(CN(C)CCC(O)c2ccccc2)nn1C (stereo unspecified)	-2.1
CCn1c(C)nnc1SCCn1cc(-c2nccs2)nn1	-7.44
Cc1cc(C)n(-c2cncc(N3CCN(C(=O)C(C)(C)C)CC3)n2)n1	1.04
Cc1nc[nH]c1CN1C[C@@H]2CC[C@H](C1)N(C(=O)CCc1cnn(C)c1)C2	-1.54
CN(CCc1cccc2ccccc12)Cc1nc(N)nc(N(C)C)n1	28.3
COc1cccc(CC2CCCN2CCCC#N)c1 (stereo unspecified)	-1.21
COCCOCCNc1cncc(Br)c1	-0.213
CCN(CC)C(=O)[C@@H]1C[C@H](N)CN1c1nnc(-c2ccccc2)s1	18.2
Cc1cnn(CC(C)NCCc2cccs2)c1 (stereo unspecified)	23.7
Cc1ccc(S(=O)(=O)N2C[C@H]3C[C@H](NC(=O)C(C)C)[C@H]3C2)cc1	20.3
Cc1ccc(N2CCC(CCN3CCCC3=O)CC2)nn1	-22
COc1cccc(CCC(=O)Nc2ccn(C)n2)c1OC	-10
Cc1cc(C)n(CCC(=O)N2CCCC(n3nc(C)nc3C)C2)n1 (stereo unspecified)	-6.97

Compound	cytotoxicity at 70.5 h [%]
Cc1ccn(-c2ccccc2NCc2cccnc2)n1	5.47
c1cc(CNCc2ccc(-n3cncn3)nc2)cc(OC2CCCC2)c1	-6.11
COc1nc(C)ccc1CNC(=O)NC(C)(C)c1ncc(C)s1	-5.61
Cc1cc(C)cc(CN2C[C@H]3COC[C@H](N4CCN(C)CC4)[C@H]3C2)c1	-6.19
Cc1cc(C2CCC2)nc(N2CCC3(CC2)OCCCC3O)n1 (stereo unspecified)	-8.75
CCCN1CCC2(C1)c1ccccc1S(=O)(=O)N2Cc1ccccc1 (stereo unspecified)	3.08
Cc1nc(C(=O)N2CCN(c3ccc(Cl)c(Cl)c3)CC2)cs1	-3.76
Cc1ccccc1-c1noc(CN2CCc3nn(C)c(=O)cc3C2)n1	-11.6
CC(C)CN1C(=O)C2(CCN(Cc3ccc(F)cc3)C2)c2ccccc21 (stereo unspecified)	-0.325
Nc1nccc(C2CCN(CC3CC3)C2)n1 (stereo unspecified)	17.6
CC(C)(C)CNC(=O)CNC(=O)C1CC1	0.566
CN(C)C1CCN(c2cc(-c3ccccc3)nc3ccnn23)C1 (stereo unspecified)	5.02
c1ccc(Cc2noc(CN3CCOC(Cn4cncn4)C3)n2)cc1 (stereo unspecified)	12
CS(=O)(=O)CCNC(=O)C1(c2cccc(Cl)c2)CCCCC1	17.7
CCO[C@H]1CO[C@@]2(CCCN(Cc3nc(C)cs3)C2)C1	-10.1
CCOCC1c2c(cnn2CC2CC2)CCN1Cc1nccs1 (stereo unspecified)	-9.55
CC(C)Cc1nc(COc2ccc(N(C)C(N)=O)cc2)no1	-2.35
CCCc1ccc(OC23CCCN(CC2)C3)c(OC)c1 (stereo unspecified)	-9.71
CCn1cc(-c2nccnc2C2CCCN(C(C)=O)C2)cn1 (stereo unspecified)	-4.58
CCNC(=O)NCc1nn(CCN2CCCC2)c(=O)c2ccccc12	-5.36
CN(C)Cc1cc(=O)n2c(n1)CN(C(=O)Cc1cccs1)CCC2	1.23
CCCC(=O)N(CCCN1CCOCC1)c1nc2c(C)ccc(Cl)c2s1	-3.12
Cn1cccc1C(=O)N1CCC2(CC1)CN(S(C)(=O)=O)c1ccccc12	3.63
CCN(Cc1cccc(F)c1)Cn1nc(C)c2c(C)onc2c1=O	-8.8

Compound	cytotoxicity at 70.5 h [%]
COc1ccccc1C(O)CNC(=O)Nc1ccccn1 (stereo unspecified)	-5.18
CC(C)c1noc(CNc2ccc(OC(F)F)cc2OC(F)F)n1	8.88
Cc1cc(C(=O)NCCC2CN(C)CCO2)c2cccc(C)c2n1 (stereo unspecified)	-11.4
CC(C)CNC(=O)c1cn(C)c(=O)c2ccccc12	7.18
CC(=O)NCCNC(=O)c1sccc1Br	-16.2
c1cc(-c2nnn3c2COC(CNCC2CCOCC2)C3)ccn1 (stereo unspecified)	32.3
O=C1CC2(CCSC2)C(=O)N1CCCc1ccccc1 (stereo unspecified)	-5.63
CC1Cc2ccccc2N1C(=O)Cn1nc(-c2cccs2)ccc1=O (stereo unspecified)	-8.13
COc1cccc2c1OCC(CNC(=O)Cc1csc(C(C)=O)c1)C2 (stereo unspecified)	14.4
O=C(COCC1CC1)NCC(c1ccccc1)N1CCc2sccc2C1 (stereo unspecified)	-6.84
O=C1CC(c2ccsc2)c2sc(C(=O)O)c(-c3ccccc3)c2N1 (stereo unspecified)	-11.4
Cn1c(CN2CCCc3cc(F)cc(F)c32)cc(=O)n(C)c1=O	-4.68
COc1ccccc1CNC(C)c1ccc2[nH]c(=O)[nH]c2c1 (stereo unspecified)	1.17
COC(=O)c1cccc(S(=O)(=O)Nc2ccc(Cl)c(C(N)=O)c2)c1	-12.3
COCCn1nc(C(=O)N2CCOCC2C)ccc1=O (stereo unspecified)	16.9
CN1C(=O)CO[C@H](c2ccc(NC(=O)Cc3cccs3)cc2)[C@H]1CO	-6.23
COCc1nnc(C(=O)N2CC(N3CCCCC3)C2)o1	-9.01
Cc1ccn(CCNC(=O)C2(C)CC(c3ccccc3)=NO2)n1 (stereo unspecified)	-1.48
CCNC(=O)COc1ccccc1N1CCCC(C)C1 (stereo unspecified)	-1.31
O=C(c1ccc(-n2cccn2)nc1)N1CCCN(c2cccnn2)CC1	-14.8
